These results are taken from US4835185A, “Immunomodulator for improving commercial performance of domestic animals” (Iowa State University Research Foundation, Inc., priority 1987, dated 1989).

Details of data set [1]: species or system pigs. Particulars: pig, in vivo. An excerpt:
(§1) In experiment 1, sixteen female pigs weighing 20-30 kg were used. Seven days before study, catheters were surgically placed in the right atria for blood sampling. Animals were housed in individual cages during the recovery period and had free access to water. Preceding the experiment, animals were fed twice daily a basal diet (2% of body weight per feeding). The basal diet consisted of a corn-soybean mix, adequate in all minerals and vitamins and containing approximately 14% crude protein. Test meals were formulated by additions to a basal diet. Five animals received the basal diet (control); five animals received the leucine meal, which had 2% leucine added to the basal diet; and six animals received the KIC diet, which had 2% KIC (sodium salt equivalent to 1.7% free acid) added to the basel diet. Studies were begun between 0800 and 0900 h after a 24-hr fast. Basal blood samples were taken at -20, -10 and -5 min. Animals were then offered 100 g of their respective test meal (time 0). Pigs were included in the study only if they consumed the entire meal in the first 20 min. Blood was sampled every 30 min from 120 to 240 min. Plasma was separated, Trasylol (FBA Pharmaceuticals, New York, NY) added (50 ul/ml), and plasma stored at -70 C. until analyzed.
(§2) Cortisol was measured by coated tube kits (Gammacoat, Travenol-Genetech Diagnostics, Cambridge, MA). Leucine and KIC were measured by high pressure liquid chromatography. Crystalline leucine was obtained from Sigma Chemical (St. Louis, MO) and KIC-sodium was obtained from SOBAC (Paris, France). Statistical analysis of the individual pig responses was conducted on mean plasma concentrations before the meal (-20 to 0 min) and after the meal (120 to 240 min). When the overall treatment F-value was significant, differences between individual treatments were determined using the pooled SEM and a T-test.

Another data set concerns plasma cortisol. Description: Plasma cortisol in pigs after test meals. It counts as in vivo. Here is the method: To determine if KIC could acutely alter cortisol concentrations, young pigs were fed meals supplemented with leucine or KIC and plasma cortisol was measured.
as §1, with “Blood was sampled every 30 min from 120 to 240 min.” left out
as §2

The nature of data set [2]: Water solubility of KIC salts. It counts as physicochemical. The following applies: vs ammonium and alkali metal salts.
Data set [3] in a line: Feeding of calcium versus sodium KIC to ruminants. Format: in vivo, ruminants such as cattle and sheep.

With `CC(C)C[C@H](N)C(=O)O` [leucine, reference compound], in data set [1], the “Plasma KIC, Change” value is 66 µM; the “Plasma leucine, Change” value was found to be 518 µM; the “increase of plasma leucine concentration” value is on record as 4 fold. Besides, in data set [1] (240 min), the “Plasma KIC, Post” value worked out at 90 µM and the “Plasma leucine, Post” value was 664 µM. For the same molecule, the “Plasma cortisol, Change” value in the data set with plasma cortisol (2% in meal, control -0.09) is -0.48 µg/dL. For the same molecule, in the data set with plasma cortisol (2% in meal, pre: leucine 2.8, KIC 4.7, pooled SEM 0.49), the “Plasma cortisol, Post” value came out at 2.4 µg/dL. In the data set on plasma cortisol (2% leucine in meal, nonsignificant), the “change in plasma cortisol” value is reported as -14%.

In the case of `CC(C)CC(=O)C(=O)O` [Ca-KIC], the water solubility result in data set [2] is listed as “less water-soluble”. The “effectiveness relative to sodium salt” value in data set [3] is “generally comparably effective with the sodium salt”.
